Assay results published in PMC8067754, “Active Transport of Hepatotoxic Pyrrolizidine Alkaloids in HepaRG Cells” (International Journal of Molecular Sciences, 2021).
Several values for one entry are separate records, joined by “and”; a condition that tells them apart may be missing. Identical values can stand only once.

Tested on: HepaRG cells
Assay: Time-dependent PA depletion and PANO formation in cell culture medium of HepaRG cells at 37 °C and 4 °C (LC-MS/MS)
Details: for PA content in cell culture medium, Mean [%]: 700 nM PA; for PA content in cell culture medium, Mean [%] / PANO content in cell culture medium, Mean [%]: percent of initial PA concentration; for reduction of PA content in the supernatant / PANO formation in cell culture medium: 37 °C; for reduction of PA content in the supernatant: after 24 h, 700 nM; for PANO formation in cell culture medium / PANO content in cell culture medium, Mean [%]: 700 nM parent PA
Method: In order to measure time-dependent depletion of PA and PANO content in cell culture medium, cells were seeded at a density of 0.2 × 10^6 cells per well in a 6-well plate and cultivated as described in Section 4.2. After four weeks of cultivation, cells were adapted to serum-free medium and medium substituted with insulin, transferrin, selenium (ITS) serum extender (Capricorn Scientific, Ebsdorfergrund, Germany) 48 h prior to PA incubation for optimal LC-MS/MS measurements. […] Samples were taken after 2 h, 4 h, 8 h and 24 h.
Briefly, chromatographic separation of PA/PANO analytes was achieved on a 50 × 2.1 mm Kinetex ™ 2.6 μm CoreShell EVO C18 100 Å column protected by a SecurityGuard ™ ULTRA EVO C 18 2.1 mm guard column (both Phenomenex, Aschaffenburg, Germany) at a flow rate of 0.4 mL/min on a Shimadzu high performance liquid chromatography (HPLC) apparatus (LC-20AB, SIL-20AC HT, CTO-20AC, CBM-20A, Duisburg, Germany) coupled to an API4000 triple quadrupole MS (Sciex, Darmstadt, Germany). The following MS parameters were used for measurements in positive electrospray ionisation (ESI+) mode: ionisation voltage 2500 V, nebuliser gas 50 psi, heating gas 50 psi, curtain gas 30 psi, temperature 600 °C, collision gas level 7. The substance specific parameters are summarized in Kaltner et al. 2019 [79].

In the case of CC(C)[C@](O)(C(=O)OCC1=CCN2CC[C@@H](O)[C@@H]12)[C@@H](C)O [Lycopsamine, lycopsamine], the “PA content in cell culture medium, Mean [%]” value (from here on “PA content … [%]”) (HepaRG, 4 °C (cold), 0h) is reported as 115.66%, the “PA content … [%]” value (HepaRG, 4 °C (cold), 2h) is reported as 114.666% and the “PA content … [%]” value (HepaRG, 37 °C (warm), 2h) is reported as 110.255%. For the same molecule, the “PA content … [%]” value (HepaRG, 37 °C (warm), 4h) was 110.221%, the “reduction of PA content in the supernatant” value (HepaRG) was “only little reduction” and the “PA in medium, Mean [%]” value (cold, 0h) was 100%. The “PA in medium, single replicates (repl.)” value (cold, 0h) was 100%, the “PA in medium, Mean [%]” value (cold, 2h) was 98.8899% and the “PA in medium, single replicates (repl.)” value (cold, 2h) was 94.3912% and 95.7309%. For the same molecule, the “PA in medium, Mean [%]” value (cold, 4h) was 96.1322%, the “PA in medium, single replicates (repl.)” value (cold, 4h) was 91.7949% and 100.05% and the “PA in medium, Mean [%]” value (cold, 8h) was 96.74%. The “PA in medium, single replicates (repl.)” value (cold, 8h) was 94.6446% and 94.7892% and 95.0549%, the “PA in medium, single replicates (repl.)” value (cold, 24h) was 89.7134% and 94.6663% and 94.1752% and 95.3538% and the “PA in medium, Mean [%]” value (warm, 0h) was 100%. The “PA in medium, single replicates (repl.)” value (warm, 0h) was 100%, the “PA in medium, Mean [%]” value (warm, 2h) was 96.1576% and the “PA in medium, single replicates (repl.)” value (warm, 2h) was 89.3775%. The “PA in medium, Mean [%]” value (warm, 4h) was 95.7481%, the “PA in medium, single replicates (repl.)” value (warm, 4h) was 96.6594% and the “PA in medium, Mean [%]” value (warm, 8h) was 94.2429%. For the same molecule, the “PA in medium, single replicates (repl.)” value (warm, 8h) was 86.6726% and 92.5981% and the “PA in medium, single replicates (repl.)” value (warm, 24h) was 92.6515%.
In the case of C/C=C1/C[C@@H](C)[C@@](C)(O)C(=O)OC/C2=C/CN(C)CC[C@@H](OC1=O)C2=O [Senkirkine, senkirkine], the “PA content … [%]” value (HepaRG, 4 °C (cold), 8h) is reported as 116.261%, the “PA content … [%]” value (HepaRG, 4 °C (cold), 24h) is reported as 100.349% and the “PA content … [%]” value (HepaRG, 37 °C (warm), 24h) is reported as 51.3803%. For the same molecule, the “PANO formation in cell culture medium” value (HepaRG, up to 24 h) was “did not form PANOs”, the “uptake and toxicity (grading)” value (HepaRG, Figure 2a, toxicity grading with ref 41) was “medium” and the “PA in medium, Mean [%]” value (cold, 0h) was 100%. For the same molecule, the “PA in medium, single replicates (repl.)” value (cold, 0h) was 100%, the “PA in medium, single replicates (repl.)” value (cold, 2h) was 96.9078% and the “PA in medium, single replicates (repl.)” value (cold, 4h) was 94.744% and 91.9958%. For the same molecule, the “PA in medium, Mean [%]” value (cold, 8h) was 99.7692%, the “PA in medium, single replicates (repl.)” value (cold, 8h) was 96.8217% and the “PA in medium, Mean [%]” value (cold, 24h) was 86.0777%. The “PA in medium, single replicates (repl.)” value (cold, 24h) was 79.1115%, the “PA in medium, Mean [%]” value (warm, 0h) was 100% and the “PA in medium, single replicates (repl.)” value (warm, 0h) was 100%. For the same molecule, the “PA in medium, Mean [%]” value (warm, 2h) was 96.897%, the “PA in medium, single replicates (repl.)” value (warm, 2h) was 86.8159% and 96.0701% and the “PA in medium, Mean [%]” value (warm, 4h) was 92.4068%. The “PA in medium, single replicates (repl.)” value (warm, 4h) was 82.3204% and 92.3164%, the “PA in medium, Mean [%]” value (warm, 8h) was 78.7411% and the “PA in medium, single replicates (repl.)” value (warm, 8h) was 72.1889% and 78.0729% and 85.9614%. The “PA in medium, Mean [%]” value (warm, 24h) was 45.8528% and the “PA in medium, single replicates (repl.)” value (warm, 24h) was 40.9466% and 44.2184% and 52.3933%.
C/C=C(/C)C(=O)O[C@@H]1CC[N+]2([O-])CC=C(COC(=O)[C@@](O)([C@H](C)O)C(C)(C)O)[C@H]12 (stereo partly drawn) [echimidine N-oxide] was tested, and the “PANO formation in cell culture medium” value (HepaRG, up to 24 h) was “increased with time”.
For C/C=C1/C[C@@H](C)[C@](O)(CO)C(=O)OCC2=CC[N@@+]3([O-])CC[C@@H](OC1=O)[C@@H]23 [retrorsine N-oxide], the “PANO formation in cell culture medium” value (HepaRG, up to 24 h) was “increased with time”.
In the case of C/C=C1/C[C@@H](C)[C@@](C)(O)C(=O)OCC2=CC[N+]3([O-])CC[C@@H](OC1=O)[C@@H]23 (stereo partly drawn) [senecionine N-oxide], the “PANO formed in cold-incubated cells, of the applied mother compound” value (HepaRG, 4 °C, 700 nM senecionine, up to 24 h, Figure 2d) is reported as < 1% and the “PANO formation in cell culture medium” value (HepaRG, up to 24 h) is reported as “increased with time”.
With intermedine the “PA content … [%]” value (HepaRG, 4 °C (cold), 0h) was 107.988%, the “PA content … [%]” value (HepaRG, 4 °C (cold), 2h) was 103.883% and the “PA content … [%]” value (HepaRG, 4 °C (cold), 4h) was 102.163%. The “PA content … [%]” value (HepaRG, 4 °C (cold), 8h) was 103.746%, the “PA content … [%]” value (HepaRG, 4 °C (cold), 24h) was 100.748% and the “PA content … [%]” value (HepaRG, 37 °C (warm), 0h) was 108.544%. For the same molecule, the “PA content … [%]” value (HepaRG, 37 °C (warm), 2h) was 103.044%, the “PA content … [%]” value (HepaRG, 37 °C (warm), 4h) was 97.3218% and the “PA content … [%]” value (HepaRG, 37 °C (warm), 8h) was 97.4673%. For the same molecule, the “PA content … [%]” value (HepaRG, 37 °C (warm), 24h) was 100.568%, the “PANO content in cell culture medium, Mean [%]” value (shortened to “PANO content … [%]”) (HepaRG, 4 °C (cold), 0h) was 0% and the “PANO content … [%]” value (HepaRG, 4 °C (cold), 2h) was 0.06406%. For the same molecule, the “PANO content … [%]” value (HepaRG, 4 °C (cold), 4h) was 0.04788%, the “PANO content … [%]” value (HepaRG, 4 °C (cold), 8h) was 0.07456% and the “PANO content … [%]” value (HepaRG, 4 °C (cold), 24h) was 0.022%. For the same molecule, the “PANO content … [%]” value (HepaRG, 37 °C (warm), 0h) was 0%, the “PANO content … [%]” value (HepaRG, 37 °C (warm), 2h) was 0.04194% and the “PANO content … [%]” value (HepaRG, 37 °C (warm), 4h) was 0.01862%. The “PANO content … [%]” value (HepaRG, 37 °C (warm), 8h) was 0.0065%, the “PANO content … [%]” value (HepaRG, 37 °C (warm), 24h) was 0.0275% and the “reduction of PA content in the supernatant” value (HepaRG) was “only little reduction”. For the same molecule, the “PA in medium, Mean [%]” value (cold, 0h) was 100%, the “PA in medium, single replicates (repl.)” value (cold, 0h) was 100% and the “PANO in medium, Mean [%]” value (cold, 0h) was 0%. The “PANO in medium, single replicates (repl.)” value (from here on “PANO in medium … (repl.)”) (cold, 0h) was 0%, the “PA in medium, Mean [%]” value (cold, 2h) was 96.2366% and the “PA in medium, single replicates (repl.)” value (cold, 2h) was 96.0144% and 91.6565% and 102.06% and 95.215%. The “PANO in medium, Mean [%]” value (cold, 2h) was 0.05112%, the “PANO in medium … (repl.)” value (cold, 2h) was 0.03% and 0.05295% and 0.03688% and 0.08463% and the “PA in medium, Mean [%]” value (cold, 4h) was 94.7318%. For the same molecule, the “PA in medium, single replicates (repl.)” value (cold, 4h) was 93.7752% and 93.3154% and 101.161% and 90.6753%, the “PANO in medium, Mean [%]” value (cold, 4h) was 0.03748% and the “PANO in medium … (repl.)” value (cold, 4h) was 0.02966% and 0.02637% and 0% and 0.09388%. For the same molecule, the “PA in medium, Mean [%]” value (cold, 8h) was 96.1713%, the “PA in medium, single replicates (repl.)” value (cold, 8h) was 95.8013% and 89.4137% and 105.78% and 93.6906% and the “PANO in medium, Mean [%]” value (cold, 8h) was 0.05989%. For the same molecule, the “PANO in medium … (repl.)” value (cold, 8h) was 0.03944% and 0.1014% and 0% and 0.09868%, the “PA in medium, Mean [%]” value (cold, 24h) was 93.3405% and the “PA in medium, single replicates (repl.)” value (cold, 24h) was 92.0698% and 90.9944% and 99.8071% and 90.4909%. For the same molecule, the “PANO in medium, Mean [%]” value (cold, 24h) was 0.01524%, the “PANO in medium … (repl.)” value (cold, 24h) was 0.001348% and 0% (2×) and 0.05962% and the “PA in medium, Mean [%]” value (warm, 0h) was 100%. For the same molecule, the “PA in medium, single replicates (repl.)” value (warm, 0h) was 100%, the “PANO in medium, Mean [%]” value (warm, 0h) was 0% and the “PANO in medium … (repl.)” value (warm, 0h) was 0%. For the same molecule, the “PA in medium, Mean [%]” value (warm, 2h) was 94.9033%, the “PA in medium, single replicates (repl.)” value (warm, 2h) was 93.3617% and 94.7726% and 98.2992% and 93.1796% and the “PANO in medium, Mean [%]” value (warm, 2h) was 0.03999%. The “PANO in medium … (repl.)” value (warm, 2h) was 0.003057% and 0.04704% and 0.1099% and 0%, the “PA in medium, Mean [%]” value (warm, 4h) was 89.9787% and the “PA in medium, single replicates (repl.)” value (warm, 4h) was 93.5042% and 95.5972% and 80.8797% and 89.9336%. For the same molecule, the “PANO in medium, Mean [%]” value (warm, 4h) was 0.01797%, the “PANO in medium … (repl.)” value (warm, 4h) was 0% (2×) and 0.07092% and 0.000941% and the “PA in medium, Mean [%]” value (warm, 8h) was 90.1345%. The “PA in medium, single replicates (repl.)” value (warm, 8h) was 94.7528% and 91.6017% and 83.3876% and 90.7959%, the “PANO in medium, Mean [%]” value (warm, 8h) was 0.006117% and the “PANO in medium … (repl.)” value (warm, 8h) was 0% (3×) and 0.02447%. The “PA in medium, Mean [%]” value (warm, 24h) was 92.1206%, the “PA in medium, single replicates (repl.)” value (warm, 24h) was 92.1111% and 85.5289% and 89.7263% and 101.116% and the “PANO in medium, Mean [%]” value (warm, 24h) was 0.02621%. The “PANO in medium … (repl.)” value (warm, 24h) was 0% (2×) and 0.05428% and 0.05058%.
